Values joined by “and” are separate entries in the source; they are usually repeats but may differ in a detail not shown here. Equal entries are not always repeated. Marks after values point to notes of the source that are not given here.
Tested on: postmenopausal women
Assay: ERC-210 phase III trial, Abbreviated Sexual Function (ASF) questionnaire
Format: in vivo
Excerpt: The example below is intended only to illustrate a particular embodiment of the present invention and is not meant to limit the scope of the invention in any manner. This study (ERC-210) is a phase III, prospective, multicentre, randomized, placebo-controlled, and double-blind trial. […] The DHEA ovules or suppositories (Vaginorm™) containing prasterone in a lipophilic base were manufactured by Recipharm, Karlskoga, Sweden. The study was divided into two phases, namely screening followed by a treatment period of 12 weeks. The protocol was approved by the Institutional Review Board of the Centre Hospitalier de I'Université Laval (Quebec City, Canada), McGill University (Montreal, Canada), Ethica (Montreal, Canada), Eastern Virginia Medical School (Norfolk, Va., USA) and the Western Institutional Review Board (Los Angeles, USA).
The inclusion and exclusion criteria were as described in (Labrie, Archer et al. 2009b). A written informed consent was obtained from all subjects prior to the performance of any study-related procedure. […] A partial gynecological examination was performed to evaluate the aspect of the mucosa and tolerance to the medication on day 1 and at all visits. The standard laboratory tests, namely hematology (including complete blood count and coagulation), blood chemistry and urinalysis were performed at screening, day 1 and at all visits. Summary tabulations were prepared displaying the number of observations, mean or geometric mean as appropriate, SD; SEM, 95% two-sided CI; median, minimum, and maximum for continuous variables; and the number and percentage per category for categorical data. Statistical analyses were performed at the two-sided significance level of 0.05 unless otherwise stated. […] The endpoints for analysis consisted of the following: desire/interest, arousal and orgasm were self-rated by the women at screening, at day 1, and at week 4, 8 and 12 using the ASF and MENQOL questionnaires. Baseline was defined as the value on day 1, obtained before first use of the study treatment, and change from baseline to week 12 was calculated for each participant for each domain endpoint. The analysis comparing each dose of DHEA to placebo was performed by analysis of covariance, with the baseline value used as the covariate. Missing values were replaced by the last observation made.
The other questionnaire used in our study to investigate sexual dysfunction has been the Abbreviated Sexual Function (ASF) questionnaire. […] When the groups with no MS pain are considered, improvements of −1.2% (p=0.9028), 31% (p=0.0337), 4.8% (p=0.3706) and 3.7% (p=0.5372) are observed compared to 12% (p=0.0134), 32% (p=0.1349), 16% (p=0.8546) and 29% (p=0.0341) in the corresponding MS pain groups.
When the orgasm domain of the ASF questionnaire is analyzed, a strong placebo effect is observed in response to the composite of the three following questions; a) over the last 4 weeks, how often did you have an orgasm when you took part in sexual activity (may be with or without partner); b) over the last 4 weeks, in general, how pleasurable were the orgasms the you had and; c) over the last 4 weeks, in general, how easy was it for you to reach orgasm?

[1] = 0.25% DHEA intravaginal daily 12 weeks, MS pain at sexual activity at baseline
[2] = 0.25% DHEA intravaginal daily 12 weeks, all subjects (ITT)
[3] = 0.25% DHEA intravaginal daily 12 weeks, no MS pain at sexual activity at baseline
[4] = 0.5% DHEA intravaginal daily 12 weeks, MS pain at sexual activity at baseline
[5] = 0.5% DHEA intravaginal daily 12 weeks, all subjects (ITT)
[6] = 0.5% DHEA intravaginal daily 12 weeks, no MS pain at sexual activity at baseline
[7] = 1.0% DHEA intravaginal daily 12 weeks, no MS pain at sexual activity at baseline
[8] = Pool 3 Doses DHEA intravaginal daily 12 weeks, MS pain at sexual activity at baseline
[9] = Pool 3 Doses DHEA intravaginal daily 12 weeks, MS pain at sexual activity at baseline, listed as prasterone
[10] = Pool 3 Doses DHEA intravaginal daily 12 weeks, all subjects (ITT)
[11] = Pool 3 Doses DHEA intravaginal daily 12 weeks, all subjects (ITT), listed as prasterone
[12] = Pool 3 Doses DHEA intravaginal daily 12 weeks, no MS pain at sexual activity at baseline
[13] = Pool 3 Doses DHEA intravaginal daily 12 weeks, no MS pain at sexual activity at baseline, listed as prasterone
[14] = average of the 3 DHEA doses, MS PAIN at baseline
[15] = average of the 3 DHEA doses, NO MS PAIN at baseline
[16] = average of the 3 DHEA doses, TOTAL (all women)

## C[C@]12CC[C@H](O)CC1=CC[C@@H]1[C@@H]2CC[C@]2(C)C(=O)CC[C@@H]12 [DHEA, (3β)-3-Hydroxyandrost-5-en-17-one]
[1]
  ASF Arousal/lubrication score, average % change from baseline to Week 12 (increased from baseline): 189%
  ASF Arousal/sensation score, average % change from baseline to Week 12 (increased from baseline): 97%
  ASF Desire score, average % change from baseline to Week 12 (increased from baseline): 32%
  ASF Orgasm score, average % change from baseline to Week 12 (increased from baseline): 66%
  ASF SUMMARY SCORE, average % change from baseline to Week 12 (increased from baseline): 59%
[2]
  ASF Arousal/sensation score, average % change from baseline to Week 12 (increased from baseline): 80%
  ASF Orgasm score, average % change from baseline to Week 12 (increased from baseline): 64%
[3]
  ASF Arousal/lubrication score, average % change from baseline to Week 12 (increased from baseline): 95%
  ASF Arousal/sensation score, average % change from baseline to Week 12 (increased from baseline): 43%
  ASF Orgasm score, average % change from baseline to Week 12 (increased from baseline): 59%
  ASF SUMMARY SCORE, average % change from baseline to Week 12 (increased from baseline): 42%
[4]
  ASF Arousal/sensation score, average % change from baseline to Week 12 (increased from baseline): 66%
  ASF Desire score, average % change from baseline to Week 12 (increased from baseline): 16%
  ASF Orgasm score, average % change from baseline to Week 12 (increased from baseline): 51%
  ASF SUMMARY SCORE, average % change from baseline to Week 12 (increased from baseline): 42%
[5]
  ASF Desire score, average % change from baseline to Week 12 (increased from baseline): 13%
  ASF Orgasm score, average % change from baseline to Week 12 (increased from baseline): 53%
  ASF SUMMARY SCORE, average % change from baseline to Week 12 (increased from baseline): 39%
[6]
  ASF Arousal/lubrication score, average % change from baseline to Week 12 (increased from baseline): 106%
  ASF Arousal/sensation score, average % change from baseline to Week 12 (increased from baseline): 103%
  ASF Desire score, average % change from baseline to Week 12 (increased from baseline): 4.8%
  ASF Orgasm score, average % change from baseline to Week 12 (increased from baseline): 56%
  ASF SUMMARY SCORE, average % change from baseline to Week 12 (increased from baseline): 31%
1.0% DHEA intravaginal daily 12 weeks, MS pain at sexual activity at baseline
  ASF Orgasm score, average % change from baseline to Week 12 (increased from baseline): 76%
1.0% DHEA intravaginal daily 12 weeks, all subjects (ITT)
  ASF Orgasm score, average % change from baseline to Week 12 (increased from baseline): 71%
[7]
  ASF Arousal/lubrication score, average % change from baseline to Week 12 (increased from baseline): 63%
  ASF Arousal/sensation score, average % change from baseline to Week 12 (increased from baseline): 30%
  ASF Desire score, average % change from baseline to Week 12 (increased from baseline): 3.7%
  ASF Orgasm score, average % change from baseline to Week 12 (increased from baseline): 50%
  ASF SUMMARY SCORE, average % change from baseline to Week 12 (increased from baseline): 21%
MS group
  Sum of changes above placebo, ASF domains: 209.4%
[8]
  ASF Arousal/lubrication score, average % change from baseline to Week 12 (increased from baseline): 171%**
  ASF Arousal/sensation score, average % change from baseline to Week 12 (increased from baseline): 76.2%*
  ASF Desire score, average % change from baseline to Week 12 (increased from baseline): 24.9%
  ASF Orgasm score, average % change from baseline to Week 12 (increased from baseline): 64.3%
[9]
  ASF Arousal/lubrication score, average % change from baseline to Week 12 (increased from baseline): 171%
  ASF Arousal/sensation score, average % change from baseline to Week 12 (increased from baseline): 76.2%
  ASF Desire score, average % change from baseline to Week 12 (increased from baseline): 24.9%
  ASF Orgasm score, average % change from baseline to Week 12 (increased from baseline): 64.3%
[10]
  ASF Arousal/lubrication score, average % change from baseline to Week 12 (increased from baseline): 149%**
  ASF Arousal/sensation score, average % change from baseline to Week 12 (increased from baseline): 71.2%**
  ASF Desire score, average % change from baseline to Week 12 (increased from baseline): 21.0%*
  ASF Orgasm score, average % change from baseline to Week 12 (increased from baseline): 62.4%
  ASF SUMMARY SCORE, average % change from baseline to Week 12 (increased from baseline): 46.6%**
[11]
  ASF Arousal/lubrication score, average % change from baseline to Week 12 (increased from baseline): 149%
  ASF Arousal/sensation score, average % change from baseline to Week 12 (increased from baseline): 71.2%
  ASF Desire score, average % change from baseline to Week 12 (increased from baseline): 21.0%
  ASF Orgasm score, average % change from baseline to Week 12 (increased from baseline): 62.4%
  ASF SUMMARY SCORE, average % change from baseline to Week 12 (increased from baseline): 46.6%
[12]
  ASF Arousal/lubrication score, average % change from baseline to Week 12 (increased from baseline): 84.6%
  ASF Arousal/sensation score, average % change from baseline to Week 12 (increased from baseline): 52.7%
  ASF Desire score, average % change from baseline to Week 12 (increased from baseline): 14.0%
  ASF Orgasm score, average % change from baseline to Week 12 (increased from baseline): 55.3%
  ASF SUMMARY SCORE, average % change from baseline to Week 12 (increased from baseline): 31.1%
[13]
  ASF Arousal/lubrication score, average % change from baseline to Week 12 (increased from baseline): 84.6%
  ASF Arousal/sensation score, average % change from baseline to Week 12 (increased from baseline): 52.7%
  ASF Desire score, average % change from baseline to Week 12 (increased from baseline): 14.0%
  ASF Orgasm score, average % change from baseline to Week 12 (increased from baseline): 55.3%
[14]
  ASF Arousal/lubrication, average % change from baseline to Week 12 in severity score over placebo: 118%**
  ASF Arousal/sensation, average % change from baseline to Week 12 in severity score over placebo: 64.2%*
  ASF Desire, average % change from baseline to Week 12 in severity score over placebo: 12.9%
  ASF Orgasm, average % change from baseline to Week 12 in severity score over placebo: 14.3%
[15]
  ASF Arousal/lubrication, average % change from baseline to Week 12 in severity score over placebo: 67.6%
  ASF Arousal/sensation, average % change from baseline to Week 12 in severity score over placebo: 58.0%
  ASF Desire, average % change from baseline to Week 12 in severity score over placebo: 15.2%
  ASF Orgasm, average % change from baseline to Week 12 in severity score over placebo: 59.4%
  ASF Summary score, average % change from baseline to Week 12 in severity score over placebo: 32.1%
[16]
  ASF Arousal/lubrication, average % change from baseline to Week 12 in severity score over placebo: 104%**
  ASF Arousal/sensation, average % change from baseline to Week 12 in severity score over placebo: 62.6%**
  ASF Desire, average % change from baseline to Week 12 in severity score over placebo: 12.3%*
  ASF Orgasm, average % change from baseline to Week 12 in severity score over placebo: 26.4%
Non MS group
  Sum of changes above placebo, ASF domains: 200.2% and 202.2%
Non MS pain group versus MS pain group
  Specificity of the effect of DHEA, ASF: 30 fold

— patent US20140045806A1 (priority 2012, published 2014)
